# Values quoted from earlier work, collected in patent US20180162913A1, “METHODS FOR PO[…] IMMUNE RESPONSE USING DEPOT-FORMING AND NON-DEPOT-FORMING VACCINES” (IMMUNOVACCINE TECHNOLOGIES INC., priority 2015, published 2018).
structure (smiles),measurement,setting,value
"O=P1(N(CCCl)CCCl)NCCCO1 (stereo not drawn) [Cyclophosphamide (CPA), N,N-bis(2-chloroethyl)-1,3,2-oxazaphosphinan-2-amine 2-oxide]","bioavailability, intravenous infusion versus parenteral and oral administration",in vivo,little difference in bioavailability
same,Total systemic clearance of CPA and its metabolites,patients,5 to 9 h
same,"peak plasma levels of the parent, variation between patients",patients,3 to 11 h
